# Results taken from ChEMBL document CHEMBL1146300, “High affinity Grb2-SH3 domain ligand incorporating Cbeta-substituted prolines in a Sos-derived decapeptide” (Bioorg Med Chem, 2007).
# The source made the active and inactive calls. The calls are words filed in the database; no cut-off is given here. Numbered stars: 1 amine (or outer) side, 2 acyl side, 3 side chain; on linkers, the order of the positions; unused ones are H or OH. Square brackets hold non-standard residues; d marks the D form. Peptide text beside a SMILES is read from it. X4 = O=C([C@@H]1C(CS(=O)(=O)c2ccccc2)CCN1[*:1])[*:2]; X3 = C[S+]([O-])CC1CCN([*:1])[C@@H]1C(=O)[*:2]; X2 = O=C(O)CC1CCN([*:1])[C@@H]1C(=O)[*:2]; X6 = CC(C)C1CCN([*:1])[C@@H]1C(=O)[*:2]; X5 = O=C([C@@H]1C(CO)CCN1[*:1])[*:2]; X1 = CC1CCN([*:1])[C@@H]1C(=O)[*:2]
# Target: Growth factor receptor-bound protein 2 (Homo sapiens, UniProt P62993)
# Assay: Binding affinity to recombinant Grb2-SH3 domain by fluorescence spectroscopy
Compound,Activity,Kd [µM]
H-VPPPPPPRRR-OH,inactive,
CC(C)C1CCN(C(=O)[C@@H]2CCCN2C(=O)[C@@H]2CCCN2C(=O)[C@@H]2CCCN2C(=O)[C@@H](N)C(C)C)[C@@H]1C(=O)N1CCC[C@H]1C(=O)N1CCC[C@H]1C(=O)N[C@@H](CCCNC(=N)N)C(=O)N[C@@H](CCCNC(=N)N)C(=O)N[C@@H](CCCNC(=N)N)C(=O)O (stereo partly drawn) (H-VPPP[X6]PPRRR-OH),inactive,
CC(C)[C@H](N)C(=O)N1CCC[C@H]1C(=O)N1CCC[C@H]1C(=O)N1CCC[C@H]1C(=O)N1CCC(CC(=O)O)[C@H]1C(=O)N1CCC[C@H]1C(=O)N1CCC[C@H]1C(=O)N[C@@H](CCCNC(=N)N)C(=O)N[C@@H](CCCNC(=N)N)C(=O)N[C@@H](CCCNC(=N)N)C(=O)O (stereo partly drawn) (H-VPPP[X2]PPRRR-OH),inactive,
CC(C)[C@H](N)C(=O)N1CCC[C@H]1C(=O)N1CCC[C@H]1C(=O)N1CCC[C@H]1C(=O)N1CCC(CS(=O)(=O)c2ccccc2)[C@H]1C(=O)N1CCC[C@H]1C(=O)N1CCC[C@H]1C(=O)N[C@@H](CCCNC(=N)N)C(=O)N[C@@H](CCCNC(=N)N)C(=O)N[C@@H](CCCNC(=N)N)C(=O)O (stereo partly drawn) (H-VPPP[X4]PPRRR-OH),inactive,
CC(C)[C@H](N)C(=O)N1CCC[C@H]1C(=O)N1CCC[C@H]1C(=O)N1CCC[C@H]1C(=O)N1CCC(CO)[C@H]1C(=O)N1CCC[C@H]1C(=O)N1CCC[C@H]1C(=O)N[C@@H](CCCNC(=N)N)C(=O)N[C@@H](CCCNC(=N)N)C(=O)N[C@@H](CCCNC(=N)N)C(=O)O (stereo partly drawn) (H-VPPP[X5]PPRRR-OH),inactive,
CC(C)[C@H](N)C(=O)N1CCC[C@H]1C(=O)N1CCC[C@H]1C(=O)N1CCC[C@H]1C(=O)N1CCC(C)[C@H]1C(=O)N1CCC[C@H]1C(=O)N1CCC[C@H]1C(=O)N[C@@H](CCCN=C(N)N)C(=O)N[C@@H](CCCN=C(N)N)C(=O)N[C@@H](CCCN=C(N)N)C(=O)O (stereo partly drawn) (H-VPPP[X1]PPRRR-OH),,11.6
CC(C)[C@H](N)C(=O)N1CCC[C@H]1C(=O)N1CCC[C@H]1C(=O)N1CCC[C@H]1C(=O)N1CCC(C[S+](C)[O-])[C@H]1C(=O)N1CCC[C@H]1C(=O)N1CCC[C@H]1C(=O)N[C@@H](CCCNC(=N)N)C(=O)N[C@@H](CCCNC(=N)N)C(=O)N[C@@H](CCCNC(=N)N)C(=O)O (stereo partly drawn) (H-VPPP[X3]PPRRR-OH),inactive,
CC(=O)N[C@H](C(=O)N1CCC[C@H]1C(=O)N1CCC[C@H]1C(=O)N1CCC[C@H]1C(=O)N1CCC(C)[C@H]1C(=O)N1CCC[C@H]1C(=O)N1CCC[C@H]1C(=O)N[C@@H](CCCNC(=N)N)C(=O)N[C@@H](CCCNC(=N)N)C(=O)N[C@@H](CCCNC(=N)N)C(=O)N[C@H](C(=O)N1CCC[C@H]1C(=O)N1CCC[C@H]1C(=O)N1CCC[C@H]1C(=O)N1CCC(C)[C@H]1C(=O)N1CCC[C@H]1C(=O)N1CCC[C@H]1C(=O)N[C@@H](CCCNC(=N)N)C(=O)N[C@@H](CCCNC(=N)N)C(=O)N[C@@H](CCCNC(=N)N)C(=O)N[C@@H](CCCCN)C(N)=O)C(C)C)C(C)C (stereo partly drawn) (Ac-VPPP[X1]PPRRRVPPP[X1]PPRRRK-NH2),,< 0.52
